Target: T1, EpHCT (Echinacea purpurea, UniProt A0A890VVY1)
T1 construct: full-length CDS, N-terminal 6xHis (pDEST17), E. coli BL21(DE3), Ni-NTA purified
Experiment: in vitro enzyme assay, LC-HRMS product detection
Assay type: biochemical

T1 sequence (A0A890VVY1 1-434): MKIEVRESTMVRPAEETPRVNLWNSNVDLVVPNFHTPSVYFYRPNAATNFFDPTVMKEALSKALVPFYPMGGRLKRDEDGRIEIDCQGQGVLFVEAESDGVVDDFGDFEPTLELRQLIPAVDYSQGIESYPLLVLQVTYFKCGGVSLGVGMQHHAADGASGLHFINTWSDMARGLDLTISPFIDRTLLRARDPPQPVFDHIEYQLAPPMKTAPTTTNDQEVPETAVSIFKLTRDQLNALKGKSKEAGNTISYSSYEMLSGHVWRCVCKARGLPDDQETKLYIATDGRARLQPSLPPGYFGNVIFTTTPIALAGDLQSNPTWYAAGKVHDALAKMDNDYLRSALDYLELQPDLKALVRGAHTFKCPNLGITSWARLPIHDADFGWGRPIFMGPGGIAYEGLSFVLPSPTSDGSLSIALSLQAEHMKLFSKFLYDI

| Structure (SMILES) | in vitro enzyme assay, LC-HRMS product detection (shikimic acid as acyl acceptor) | in vitro enzyme assay, LC-HRMS product detection (p-coumaroyl CoA or caffeoyl CoA as acyl donor) |
| --- | --- | --- |
| CC(C)(COP(=O)(O)OP(=O)(O)OC[C@H]1O[C@@H](n2cnc3c(N)ncnc32)[C@H](O)[C@@H]1OP(=O)(O)O)[C@@H](O)C(=O)NCCC(=O)NCCSC(=O)/C=C/c1ccc(O)cc1 [p-coumaroyl CoA] | production of p-coumaroyl shikimic acid using p-coumaroyl CoA and shikimic acid as substrates |  |
| O=C(O)C1=C[C@@H](O)[C@@H](O)[C@H](O)C1 [shikimic acid] |  | production of p-coumaroyl shikimic acid using p-coumaroyl CoA and shikimic acid as substrates |
